Data reported in the NIST ThermoML archive (doi:10.1021/acs.jced.8b00333).
Numbers after ± are expanded uncertainties.

Columns and labels:
[1] = Crystal; DTA
[2] = Molar enthalpy of transition or fusion; conditions: Crystal; DSC

Normal melting temperature [1]: 153.36 ± 1.1 °C
Molar enthalpy of transition or fusion [2]: 13.9 ± 0.335 kcal/mol
SMILES: CCOC(=O)[C@H](CCc1ccccc1)N[C@@H](C)C(=O)O [((S)-1-ethoxy-1-oxo-4-phenylbutan-2-yl)-L-alanine]
